# Data from patent EP2135611A1, “Pregn-5-en-20-yne-3,7,17-triol derivatives for use in therapy” (Hollis-Eden Pharmaceuticals Inc., priority 2001, dated 2002).
# Experiments:
# [1] = tested on: Distal colitis; experiment: TNBS-induced distal colitis; type: in vivo, male Sprague Dawley rats; details: for frequency of moderate to severe lesions and their severity compared with negative control (vehicle) and reference control: based on occurrence at multiple colonic levels
# Method: In another protocol formula 1 compounds were used in a similar animal model. Groups of 10 male Sprague Dawley rats (250-300 grams) were fasted for 24 hours before 2,4,6-trinitrobenzene sulfonic acid (TNBS) or saline challenge. This model presents a severe challenge to the animal's immune system. On Day 0, the rats were lightly anesthetized and a catheter inserted rectally into the colon such that the tip was 8 cm proximal to the anus. Distal colitis was induced by intra-colonic instillation of 0.5 mL of an ethanolic solution of TNBS (60 mg/mL ethanol 50% in water). The test substance, 7-oxodehydroepiandrosterone 20 mg/mL in vehicle or vehicle control was administered by subcutaneous injection (0.1 mL/injection) once a day for 6 days, the first dose being given 30 minutes after TNBS challenge. Sulfasalazine (30 mg/mL in 2% Tween 80 in distilled water) or vehicle control was administered orally (PO) once a day (10mL/kg/day) for 7 days, the first two doses beginning 24 hours and 2 hours before DNBS challenge. Signs of diarrhea were recorded daily by examining the anal area. Animals were fasted for 24 hours prior to sacrifice on day 14 and the colon was removed and weighed. After gross observations of colonic tissues, 3 samples were taken from regions approximately 1, 3, and 8 cm proximal to the anus. If gross ulcers or inflammation were present, at least one sample was taken from the affected region. Before removal of the colon, signs of adhesion between the colon and other organs were recorded. […] Body weight, colon-to-body-weight ratio, and damage scores were assessed. Visible damage was scored on a 1-5 scale as follows: 0 = No damage; 1 = Localized hyperemia but no ulcers; 2= linear ulcers with no significant inflammation; 3 = Linear ulcers with inflammation at one site; 4 = Two or more sites of ulceration and/or inflammation; 5 = Two or more major sites of ulceration and inflammation or one major site of ulceration and inflammation extending more than 1 cm along the length of the colon. […]
# [2] = tested on: Distal colitis; experiment: DNBS-induced distal colitis (inflammatory bowel disease model); type: in vivo, male Wistar rats; details: for Moderate acute inflammation, number of animals / Severe acute inflammation, number of animals: measured 7 days after DNBS challenge; for Moderate acute inflammation, number of animals / Severe acute inflammation, number of animals / Severe chronic inflammation, number of animals: groups of 10; for Severe chronic inflammation, number of animals: measured 14 days after DNBS challenge; for Adhesions between the colon and other organs / Colonic ulceration: observed at sacrifice day 7 or day 8, dosing as for each substance; for diarrhea: recorded daily, dosing as for each substance (AET: 2 mg)
# [3] = tested on: Experimental allergic encephalomyelitis (EAE); experiment: Experimental allergic encephalomyelitis induced with PLP-139-151 peptide/CFA; type: in vivo, Female SJL mice; details: for onset of EAE: 3.0 mg s.c. daily for 33 days starting 7 days before peptide; for peak clinical score: reduced from 5.2 ± 0.6; for PLP-139-151 specific T cell proliferation responses: T cells from treated mice; for numbers of TNF-α producing cells in the CNS: treated mice
# Method: Example 50. Treatment of neurodegenerative conditions. Experimental allergic encephalomyelitis (EAE), is demyelinating disease of the central nervous system with many pathological and clinical similarities with multiple sclerosis (MS). EAE is thus a recognized animal model for human autoimmune conditions such as MS. Formula 1 compounds 16α-fluoroandrost-5-ene-17-one, 3β,7β,17β,-trihydroxyandrost-5-ene and 16α-bromoepiandrosterone were tested for their capacity to delay the onset of EAE or to reduce its symptoms. Female SJL mice (5 animals per group) were immunized with 150 to 200 µg of PLP-139-151 peptide/CFA to induce EAE. Starting 7 days before injection of the peptide, the animals were given daily injections (s.c.) of the compounds (3.0 mg) in 0.1 mL vehicle, or vehicle alone for 33 days. The vehicle consisted of a suspension of the formula 1 compound in saline and carboxymethylcellulose. […] A lower dose (0.3 mg/mouse) or other routes (p.o.) of administration had less effect. […] These compounds limited the production of autoimmune Th-1 associated cytokines, which is consistent with restoration of a more normal Th-1/Th-2 immune balance and/or with reduction of inflammation in this model.
# [4] = tested on: delayed type hypersensitivity (DTH); experiment: Delayed type hypersensitivity to oxazolone (ear thickness); type: in vivo, female BALB/cByJ mice; details: for differential ear thickness: 24 hours after oxazolone challenge, vehicle alone 0.225 mm
# [5] = day 7 (acute inflammation) after DNBS challenge
# [6] = day 14 after DNBS challenge (chronic inflammation)
# [7] = s.c. 20 mg/mL formulation once a day, first dose 30 minutes after DNBS, relative to vehicle-treated group / controls
smiles,measurement,setting,value
"C[C@]12CC[C@H](O)CC1=CC[C@@H]1[C@@H]2CC[C@]2(C)C(=O)CC[C@@H]12 [dehydroepiandrosterone, reference compound]",frequency of moderate to severe lesions and their severity compared with negative control (vehicle) and reference control,[1],appeared to be similar
same,severe ulceration,[2]; [5],10 of 10
same,severe ulceration,[2]; [6],0 of 10
same,"Moderate acute inflammation, number of animals",[2],0 animals
same,"Severe acute inflammation, number of animals",[2],10 animals
same,"Severe chronic inflammation, number of animals",[2],3 animals
same,decrease of net colon-to-body weight ratio,[2]; [7],3%
"C[C@]12CC[C@H](O)C[C@@H]1CC[C@@H]1[C@@H]2CC[C@]2(C)C(=O)[C@H](Br)C[C@@H]12 [BrEA, 16α-bromo-3β-hydroxy-5α-androstane-17-one]",effect on EAE,[3]; 3.0 mg s.c. daily for 33 days,not significant
same,frequency of moderate to severe lesions and their severity compared with negative control (vehicle) and reference control,[1],appeared to be similar
same,decrease of net colon-to-body weight ratio,"[2]; s.c. 100 mg/mL formulation, relative to controls",21%
"C[C@@H]1C[C@H]2[C@@H]3CCC4=CC(=O)C=C[C@]4(C)[C@@]3(F)[C@@H](O)C[C@]2(C)[C@@]1(O)C(=O)CO [dexamethasone, reference compound]",differential ear thickness,[4],0.144 mm
C[C@]12CCCCC1=CC[C@@H]1[C@@H]2CC[C@]2(C)C(=O)[C@H](F)C[C@@H]12 [16α-fluoroandrost-5-ene-17-one],reduction of cumulative disease index,[3]; 3.0 mg s.c. daily for 33 days,> 60%
same,relapses,[3]; 3.0 mg s.c. daily for 33 days,prevented or significantly attenuated
same,onset of EAE,[3],significantly delayed
same,peak clinical score,[3]; 3.0 mg s.c. daily for 33 days,2.8 ± 1.8
same,PLP-139-151 specific T cell proliferation responses,[3],significantly reduced
same,numbers of TNF-α producing cells in the CNS,[3],reduced numbers
"C[C@]12CC[C@H]3[C@@H]([C@@H](O)C=C4C[C@@H](O)CC[C@@]43C)[C@@H]1CC[C@@H]2O [AET, 3β,7β,17β-trihydroxyandrost-5-ene]",enhancement of the DTH response,"[4]; s.c. 2 mg/day daily for 8 days, first dose 24 hours before sensitization, last dose 24 hours prior to challenge",23%
same,reduction in the DTH response,"[4]; s.c. 2 mg/day, administered 24 hours before challenge or at challenge",22-24%
same,reduction of cumulative disease index,[3]; 3.0 mg s.c. daily for 33 days,> 60%
same,relapses,[3]; 3.0 mg s.c. daily for 33 days,prevented or significantly attenuated
same,onset of EAE,[3],significantly delayed
same,peak clinical score,[3]; 3.0 mg s.c. daily for 33 days,2.8 ± 1.8
same,PLP-139-151 specific T cell proliferation responses,[3],significantly reduced
same,numbers of TNF-α producing cells in the CNS,[3],reduced numbers
same,animals with colonic ulcerations relative to untreated animals,"[2]; 2 mg, N=9, pooled data from two studies",33%
same,animals showing ulcers (chronic ulceration),"[2]; 14 days after challenge, initiation of treatment delayed until 2 days after DNBS challenge",5 of 10
same,severe ulceration,[2]; [5],2 of 10
same,severe ulceration,[2]; [6],1 of 10
same,"net colon-to-body weight ratio, ulcers and diarrhea",[2]; four subsequent studies,variably reduced
same,"Moderate acute inflammation, number of animals",[2],6 animals
same,"Severe acute inflammation, number of animals",[2],4 animals
same,"Severe chronic inflammation, number of animals",[2],3 animals
same,Adhesions between the colon and other organs,[2],absent
same,diarrhea,[2],no diarrhea
same,decrease of net colon-to-body weight ratio,"[2]; s.c. 0.2 mg/day for 5 or 6 days, first dose 30 minutes post-DNBS, relative to controls",15%
same,decrease of net colon-to-body weight ratio,"[2]; s.c. 2.0 mg/day for 5 or 6 days, first dose 30 minutes post-DNBS, relative to controls",21%
"C[C@]12CC[C@H](O)CC1=CC(=O)[C@@H]1[C@@H]2CC[C@]2(C)C(=O)CC[C@@H]12 [7-oxodehydroepiandrosterone, 3β-hydroxyandrost-5-ene-7,17-dione]",effect on inflammation (histopathological data),"[1]; 20 mg/mL, 0.1 mL s.c. once a day for 6 days",exacerbated the inflammation
same,decrease of net colon-to-body weight ratio,"[2]; 0.1 mL s.c. of 2 mg/mL formulation once a day for 6 days, first dose 30 minutes after DNBS, relative to vehicle-treated group",19%
same,Adhesions between the colon and other organs,[2],absent in all three tested animals
same,Colonic ulceration,[2],1/3
same,diarrhea,[2],All animals had diarrhea
same,decrease of net colon-to-body weight ratio,[2]; [7],14%
"O=C(O)c1cc(/N=N/c2ccc(S(=O)(=O)Nc3ccccn3)cc2)ccc1O [sulfasalazine, reference compound]",change in net colon-to-body weight (BW) ratio,"[2]; PO 30 mg/mL, 10 mL/kg/day once a day for 7 days, relative to EE-1 treated group",-33%
same,severe ulceration,[2]; [5],3 of 10
same,severe ulceration,[2]; [6],4 of 10
same,"Moderate acute inflammation, number of animals",[2],6 animals
same,"Severe acute inflammation, number of animals",[2],3 animals
same,"Severe chronic inflammation, number of animals",[2],2 animals
same,Adhesions between the colon and other organs,[2],no animals
same,Colonic ulceration,[2],no animals
same,diarrhea,[2],all animals
"O=P1(N(CCCl)CCCl)NCCCO1 (centres unmarked) [cyclophosphamide, reference compound]",differential ear thickness,[4],0.092 mm
